Measurements reported in PubChem BioAssay AID330 (DTP/NCI, 2004).
Values joined by “and” are separate entries in the source; they are usually repeats but may differ in a detail not shown here. Equal values may be shown once. Toxic doses and inconclusive results are not listed.

Test system: P388 leukemia ip, CD2F1 mice, survival T/C
Assay: NCI In Vivo Anticancer Drug Screen. Data for tumor model P388 Leukemia (intraperitoneal) in CD2F1 (CDF1) mice
Conditions: endpoint: median survival time, higher = longer survival
How it was run: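 Mice carrying the transplanted tumor received test compound or vehicle. Survival was recorded in each group, and the value is the treated-group measurement divided by that of the vehicle-treated control group.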

[1] = dose: 50.0 mg/kg/injection, schedule: Q01DX009 (ip), vehicle: saline
[2] = dose: 100.0 mg/kg/injection, schedule: Q01DX009 (ip), vehicle: saline
[3] = dose: 60.0 mg/kg/injection, schedule: Q01DX005 (ip), vehicle: saline with Tween-80
[4] = dose: 120.0 mg/kg/injection, schedule: Q01DX005 (ip), vehicle: saline with Tween-80
[5] = dose: 240.0 mg/kg/injection, schedule: Q01DX005 (ip), vehicle: saline with Tween-80
[6] = dose: 50.0 mg/kg/injection, schedule: Q01DX009 (ip), vehicle: Klucel (hydroxypropylcellulose) (HPC)
[7] = dose: 100.0 mg/kg/injection, schedule: Q01DX009 (ip), vehicle: Klucel (hydroxypropylcellulose) (HPC)
[8] = dose: 200.0 mg/kg/injection, schedule: Q01DX009 (ip), vehicle: Klucel (hydroxypropylcellulose) (HPC)
[9] = dose: 50.0 mg/kg/injection, schedule: Q01DX005 (ip), vehicle: Klucel (hydroxypropylcellulose) (HPC)
[10] = dose: 100.0 mg/kg/injection, schedule: Q01DX005 (ip), vehicle: Klucel (hydroxypropylcellulose) (HPC)
[11] = dose: 200.0 mg/kg/injection, schedule: Q01DX005 (ip), vehicle: Klucel (hydroxypropylcellulose) (HPC)
[12] = dose: 50.0 mg/kg/injection, schedule: Q01DX005 (ip), vehicle: saline with Tween-80
[13] = dose: 100.0 mg/kg/injection, schedule: Q01DX005 (ip), vehicle: saline with Tween-80
[14] = dose: 200.0 mg/kg/injection, schedule: Q01DX005 (ip), vehicle: saline with Tween-80
[15] = dose: 100.0 mg/kg/injection, schedule: Q04DX003 (ip), vehicle: saline
[16] = dose: 200.0 mg/kg/injection, schedule: Q04DX003 (ip), vehicle: saline
[17] = dose: 400.0 mg/kg/injection, schedule: Q04DX003 (ip), vehicle: saline
[18] = dose: 12.5 mg/kg/injection, schedule: Q01DX005 (ip), vehicle: saline with Tween-80
[19] = dose: 20.0 mg/kg/injection, schedule: Q01DX009 (ip), vehicle: saline with Tween-80

NC(CCl)=NCC12CC3CC(CC(C3)C1)C2
T/C (dose: 12.5 mg/kg/injection, schedule: Q01DX009 (ip), vehicle: Klucel (hydroxypropylcellulose) (HPC)): 90 % of control

COc1cc2ccc3c(c2cc1OC)CNCC3
T/C [1]: 100 % of control | T/C [2]: 100 % of control

Nc1nc(=O)nc2[nH]c3c4cccc5cccc(c3nc12)c54
T/C [3]: 96 % of control | T/C (dose: 100.0 mg/kg/injection, schedule: Q04DX002 (ip), vehicle: Klucel (hydroxypropylcellulose) (HPC)): 100 % of control | T/C [4]: 93 % of control | T/C (dose: 200.0 mg/kg/injection, schedule: Q04DX002 (ip), vehicle: Klucel (hydroxypropylcellulose) (HPC)): 100 % of control | T/C [5]: 100 % of control | T/C (dose: 400.0 mg/kg/injection, schedule: Q04DX002 (ip), vehicle: Klucel (hydroxypropylcellulose) (HPC)): 101 % of control

CCNCC1COc2cccc(OCC)c2O1 (stereo unspecified)
T/C (dose: 25.0 mg/kg/injection, schedule: Q04DX002 (ip), vehicle: saline): 104 % of control | T/C (dose: 50.0 mg/kg/injection, schedule: Q04DX002 (ip), vehicle: saline): 101 % of control | T/C (dose: 100.0 mg/kg/injection, schedule: Q04DX002 (ip), vehicle: saline): 99 % of control and 108 % of control

COc1cc(O)c(C(c2ccccc2)c2c(O)c(C)c(O)c3c2OC(c2ccccc2)CC3=O)c(O)c1C (stereo unspecified)
T/C (dose: 5.0 mg/kg/injection, schedule: Q01DX009 (ip), vehicle: Klucel (hydroxypropylcellulose) (HPC)): 99 % of control | T/C (dose: 10.0 mg/kg/injection, schedule: Q01DX009 (ip), vehicle: Klucel (hydroxypropylcellulose) (HPC)): 99 % of control | T/C (dose: 20.0 mg/kg/injection, schedule: Q01DX009 (ip), vehicle: Klucel (hydroxypropylcellulose) (HPC)): 103 % of control | T/C (dose: 40.0 mg/kg/injection, schedule: Q01DX009 (ip), vehicle: Klucel (hydroxypropylcellulose) (HPC)): 99 % of control

O=c1oc2ccc(Cl)cc2c2c1OC(c1ccccc1)CN2 (stereo unspecified)
T/C (dose: 3.13 mg/kg/injection, schedule: Q01DX009 (ip), vehicle: saline with Tween-80): 110 % of control | T/C (dose: 6.25 mg/kg/injection, schedule: Q01DX009 (ip), vehicle: saline with Tween-80): 110 % of control | T/C (dose: 12.5 mg/kg/injection, schedule: Q01DX009 (ip), vehicle: saline with Tween-80): 103 % of control | T/C (dose: 25.0 mg/kg/injection, schedule: Q01DX009 (ip), vehicle: saline with Tween-80): 103 % of control

COc1cc(C2CC(C)(OC)Oc3cc4c(cc32)OCO4)cc(OC)c1OC (stereo unspecified)
T/C [3]: 106 % of control and 90 % of control and 95 % of control | T/C [4]: 109 % of control and 95 % of control and 97 % of control

Cc1ccc(S(=O)(=O)N/N=C/c2c(Cl)nc3sccn23)cc1
T/C (dose: 100.0 mg/kg/injection, schedule: Q01DX001 (ip), vehicle: Klucel (hydroxypropylcellulose) (HPC)): 111 % of control | T/C (dose: 200.0 mg/kg/injection, schedule: Q01DX001 (ip), vehicle: Klucel (hydroxypropylcellulose) (HPC)): 108 % of control | T/C (dose: 400.0 mg/kg/injection, schedule: Q01DX001 (ip), vehicle: Klucel (hydroxypropylcellulose) (HPC)): 111 % of control

Cc1ccc(Cl)c(NC(=S)NCc2cccnc2)c1
T/C [6]: 97 % of control | T/C [7]: 103 % of control | T/C [8]: 108 % of control

Cc1[nH]n(-c2cc(S(=O)(=O)O)ccc2Cl)c(=O)c1N=Nc1c(NC(=O)c2ccc(N)cc2)ccc2cc(S(=O)(=O)O)ccc12
T/C [9]: 96 % of control | T/C [10]: 105 % of control | T/C [11]: 115 % of control

COc1cc(CN2CCCCC2)cc2cc(C(=O)O)c(=O)oc12
T/C [12]: 103 % of control | T/C [13]: 101 % of control | T/C [14]: 100 % of control

O=S(=O)(O)c1ccc2cc3nn(-c4ccc(/C=C/c5ccc(-n6nc7cc8ccc(S(=O)(=O)O)cc8cc7n6)cc5S(=O)(=O)O)c(S(=O)(=O)O)c4)nc3cc2c1
T/C [1]: 97 % of control | T/C [2]: 97 % of control

O=C1OC(=O)c2c(Br)c(Br)c(Br)c(Br)c21
T/C [15]: 100 % of control | T/C [16]: 100 % of control | T/C [17]: 104 % of control

Cc1ccc(C(=O)Cc2ccccc2C#N)cc1
T/C (dose: 12.5 mg/kg/injection, schedule: Q01DX005 (ip), vehicle: Klucel (hydroxypropylcellulose) (HPC)): 102 % of control and 103 % of control | T/C (dose: 25.0 mg/kg/injection, schedule: Q01DX005 (ip), vehicle: Klucel (hydroxypropylcellulose) (HPC)): 88 % of control and 97 % of control | T/C [9]: 97 % of control | T/C [10]: 105 % of control

Sc1cc2c(c3ccccc13)Nc1ccccc1S2
T/C [6]: 92 % of control | T/C [7]: 97 % of control | T/C [8]: 97 % of control

CC(C)NCC(O)c1ccccc1Cl (stereo unspecified)
T/C [18]: 100 % of control | T/C (dose: 25.0 mg/kg/injection, schedule: Q01DX005 (ip), vehicle: saline with Tween-80): 104 % of control | T/C [12]: 100 % of control and 90 % of control

O=C(Nc1ccc(Cl)cc1)Nc1nnc2nc(CC(=O)c3cccc([N+](=O)[O-])c3Cl)c(=O)[nH]n12
T/C [3]: 99 % of control | T/C [4]: 101 % of control | T/C [5]: 100 % of control

CC1CN1S(=O)(=O)N1CC1C (stereo unspecified)
T/C (dose: 11.0 mg/kg/injection, schedule: Q04DX003 (ip), vehicle: saline with Tween-80): 110 % of control | T/C (dose: 16.5 mg/kg/injection, schedule: Q04DX003 (ip), vehicle: saline with Tween-80): 155 % of control | T/C [19]: 209 % of control | T/C (dose: 25.0 mg/kg/injection, schedule: Q04DX003 (ip), vehicle: saline with Tween-80): 195 % of control | T/C (dose: 37.5 mg/kg/injection, schedule: Q04DX003 (ip), vehicle: saline with Tween-80): 270 % of control | T/C (dose: 40.0 mg/kg/injection, schedule: Q01DX009 (ip), vehicle: saline with Tween-80): 172 % of control

CCCCCCCN(CCCCCCC)CC(O)c1ccc2cc(Cl)c3ccccc3c2c1 (stereo unspecified)
T/C [12]: 107 % of control | T/C [13]: 112 % of control | T/C [14]: 105 % of control

CC1OC(OC2C(OC3C[C@@]4(C)C(C[C@H](O)[C@H]5[C@H](C6(C)CCC(C(C)(C)O)O6)CCC54C)[C@]4(C)CC[C@@H](O)C(C)(C)C34)OC(CO)C(O)C2O)C(O)C(O)C1O (stereo partly specified) (tested in a mixture with another compound)
T/C [6]: 101 % of control | T/C [7]: 101 % of control | T/C [8]: 94 % of control

Brc1c(C(Br)Br)ccc2ccccc12
T/C [9]: 103 % of control | T/C [10]: 105 % of control | T/C [11]: 109 % of control

Cc1ccc2c(c1)C(C)(C)C(O)CC2(C)C (stereo unspecified)
T/C [9]: 98 % of control | T/C [10]: 106 % of control | T/C [11]: 109 % of control

CC(=O)O/N=C/c1ccncc1
T/C (dose: 25.0 mg/kg/injection, schedule: Q04DX003 (ip), vehicle: saline): 108 % of control | T/C (dose: 50.0 mg/kg/injection, schedule: Q04DX003 (ip), vehicle: saline): 101 % of control | T/C [15]: 107 % of control | T/C [16]: 109 % of control | T/C [17]: 117 % of control

CCCCCCCC(=S)SCCCC(=O)O
T/C [6]: 100 % of control | T/C [7]: 100 % of control | T/C [8]: 99 % of control

Nc1ccc(N)cc1
T/C (dose: 5.0 mg/kg/injection, schedule: Q01DX009 (ip), vehicle: saline with Tween-80): 95 % of control | T/C (dose: 5.0 mg/kg/injection, schedule: Q04DX003 (ip), vehicle: saline with Tween-80): 104 % of control | T/C (dose: 10.0 mg/kg/injection, schedule: Q01DX009 (ip), vehicle: saline with Tween-80): 100 % of control | T/C (dose: 10.0 mg/kg/injection, schedule: Q04DX003 (ip), vehicle: saline with Tween-80): 104 % of control | T/C [19]: 100 % of control | T/C (dose: 20.0 mg/kg/injection, schedule: Q04DX003 (ip), vehicle: saline with Tween-80): 104 % of control

COC(=O)C12OCC34C(CC5C(C)=CC(=O)C(O)C5(C)C3C(O)C1O)OC(=O)C(OC(=O)CC(C)C)C24 (stereo unspecified)
T/C (dose: 0.25 mg/kg/injection, schedule: Q01DX009 (ip), vehicle: saline + alcohol): 124 % of control | T/C (dose: 0.5 mg/kg/injection, schedule: Q01DX009 (ip), vehicle: saline + alcohol): 122 % of control | T/C (dose: 2.0 mg/kg/injection, schedule: Q01DX009 (ip), vehicle: saline + alcohol): 163 % of control

COc1cc(O)c2c(c1)C(O)C(O)CC1OC1C(=O)/C=C/CC(C)OC2=O (stereo unspecified)
T/C (dose: 1.56 mg/kg/injection, schedule: Q01DX005 (ip), vehicle: saline with Tween-80): 115 % of control | T/C (dose: 3.12 mg/kg/injection, schedule: Q01DX005 (ip), vehicle: saline with Tween-80): 107 % of control | T/C (dose: 6.25 mg/kg/injection, schedule: Q01DX005 (ip), vehicle: saline with Tween-80): 107 % of control | T/C [18]: 114 % of control
